From US20190134005A1 (BioMarin Pharmaceutical Inc., priority 2016, published 2019) come the findings set out here.

For this assay, the target named is T1, human CGT (Homo sapiens, UniProt Q16880).
T1 sequence (Q16880 21-541): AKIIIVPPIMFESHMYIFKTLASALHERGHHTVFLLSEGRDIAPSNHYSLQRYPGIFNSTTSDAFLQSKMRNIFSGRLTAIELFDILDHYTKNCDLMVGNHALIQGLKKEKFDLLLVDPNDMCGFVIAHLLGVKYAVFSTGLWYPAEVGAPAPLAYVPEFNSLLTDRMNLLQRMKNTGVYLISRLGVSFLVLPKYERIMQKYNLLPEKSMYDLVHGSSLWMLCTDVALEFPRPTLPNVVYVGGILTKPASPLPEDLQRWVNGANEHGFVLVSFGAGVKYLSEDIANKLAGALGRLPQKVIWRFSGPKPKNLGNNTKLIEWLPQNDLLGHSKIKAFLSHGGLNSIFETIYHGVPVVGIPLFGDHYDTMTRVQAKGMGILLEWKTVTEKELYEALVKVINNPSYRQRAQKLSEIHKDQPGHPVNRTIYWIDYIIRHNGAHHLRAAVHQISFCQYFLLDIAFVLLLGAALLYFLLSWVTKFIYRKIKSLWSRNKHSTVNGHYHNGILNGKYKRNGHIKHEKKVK
Description: Assay 1: CGT Enzymatic Assay (RapidFire/MS/MS, 0.01% Tween 80). It counts as biochemical.

Where [1] appears, read: Table 1, Compounds of Formula (I) and Formula (II), CGT enzymatic assay, read-out: IC50.
Where [2] appears, read: Table 1, Compounds of Formula (I) and Formula (II), CGT enzymatic assay, C6-NBD-dihydro-galactosylceramide readout, read-out: IC50.

The structures appear in SMILES notation. Where two headings read alike, the source gives them in different places.

Broadly, the IC50 is the concentration that inhibits the measured activity by half. `Cc1cccc(-c2c(C)n(-c3ccc(Br)cc3)c(=O)n2-c2ccc(Br)cc2)c1` [Compound 263, 1,3-bis(4-bromophenyl)-4-methyl-5-(m-tolyl)-1,3-dihydro-2H-imidazol-2-one]: the IC50 under setting [1] lay within 1000 to 10000 nM.

Regarding `C[C@]1(c2ccccc2)N(c2ccc(Cl)cc2)C(=O)N(c2ccc(Cl)cc2)[C@]1(O)c1ccccc1` [Compound 121-3, (4S,5R)-1,3-bis(4-chlorophenyl)-4-hydroxy-5-methyl-4,5-diphenylimidazolidin-2-one], the IC50 under setting [1] is over 50000 nM.

On to `C[C@@]1(c2ccccc2)N(c2ccc(Cl)cc2)C(=O)N(c2ccc(Cl)cc2)[C@@]1(O)c1ccccc1` [Compound 121-2, (4R,5S)-1,3-bis(4-chlorophenyl)-4-hydroxy-5-methyl-4,5-diphenylimidazolidin-2-one], for which the IC50 under setting [1] is over 50000 nM.

Turning to `O=C1N(c2ccc(Br)cc2)C(=O)C(O)(c2ccc(F)cc2)N1c1ccc(Br)cc1` (stereo not shown) [Example 172, 1,3-bis(4-bromophenyl)-5-(4-fluorophenyl)-5-hydroxyimidazolidine-2,4-dione], the IC50 under setting [1] lay in the range of 10000 to 50000 nM.

Take `O=c1n(-c2ccc(Br)cc2)c(-c2ccccc2)c(C2CC2)n1-c1ccc(Br)cc1` [Compound 249, 1,3-bis(4-bromophenyl)-4-cyclopropyl-5-phenyl-1,3-dihydro-2H-imidazol-2-one]: the half-maximal inhibitory concentration (IC50) under setting [1] was under 1000 nM.

As to `CC[C@]1(C)N(c2ccc(C#N)cc2)C(=O)N(c2ccc(C#N)cc2)C1(O)c1cccc(OC(F)(F)F)c1` (stereo partly drawn) [Example 319-2, 4′-((4S)-4-ethyl-5-hydroxy-4-methyl-2-oxo-5-(3-(trifluoromethoxy)phenyl)imidazolidine-1,3-diyl)dibenzonitrile], the IC50 under setting [2] is under 1000 nM.

For `CCCc1c(-c2ccccc2)n(-c2ccc(Br)cc2)c(=O)n1-c1ccc(Br)cc1` [Compound 261, 1,3-bis(4-bromophenyl)-4-phenyl-5-propyl-1,3-dihydro-2H-imidazol-2-one], under setting [1], the half-maximal inhibitory concentration (IC50) was in the range of 1000 to 10000 nM.

As for `O=C1N(c2ccc(Br)cc2)C(=O)C(O)(C2Cc3ccccc3C2)N1c1ccc(Br)cc1` (stereo not shown) [Example 215, 1,3-bis(4-bromophenyl)-5-(2,3-dihydro-1H-inden-2-yl)-5-hydroxyimidazolidine-2,4-dione], the IC50 under setting [1] lay in the range of 50000 to 100000 nM.

As to `COC[C@H]1N(c2ccc(Cl)cc2)C(=O)N(c2ccc(Cl)cc2)C1(O)c1cccc(C(F)(F)F)c1` (stereo partly drawn) [Compound 92-2, (5R)-1,3-bis(4-chlorophenyl)-4-hydroxy-5-(methoxymethyl)-4-(3-(trifluoromethyl)phenyl)imidazolidin-2-one], under setting [1], the concentration for half-maximal inhibition (IC50) was under 1000 nM.

Turning to `CC1N(c2ccc(C#N)cc2)C(=O)N(c2ccc(C#N)cc2)C1(O)c1cccc(OC(F)(F)F)c1` (stereo not shown) [Example 180, 4,4′-(4-hydroxy-5-methyl-2-oxo-4-(3-(trifluoromethoxy)phenyl)imidazolidine-1,3-diyl)dibenzonitrile], under setting [1], the half-maximal inhibitory concentration (IC50) was in the range of 1000 to 10000 nM.

As for `COc1cccc(C2(C)C(O)N(c3ccc(Br)cc3)C(=O)N2c2ccc(Br)cc2)c1` (stereo not shown) [Compound 126, 1,3-bis(4-bromophenyl)-5-hydroxy-4-(3-methoxyphenyl)-4-methylimidazolidin-2-one], under setting [1], the IC50 fell in the range of 1000 to 10000 nM.

As for `CC1(C)N(c2ccc(Cl)cc2)C(=O)N(c2ccc(Cl)cc2)C1(O)c1cccc(C(F)(F)F)c1` (stereo not shown) [Compound 134, 1,3-bis(4-chlorophenyl)-4-hydroxy-5,5-dimethyl-4-(3-(trifluoromethyl)phenyl)imidazolidin-2-one], the IC50 under setting [1] is under 1000 nM.

In turn, `O=C1N(c2ccc(Br)cc2)C(=O)C(O)(c2cc3ccccc3[nH]2)N1c1ccc(Br)cc1` (stereo not shown) [Example 210, 1,3-bis(4-bromophenyl)-5-hydroxy-5-(1H-indol-2-yl)imidazolidine-2,4-dione] displayed a half-inhibitory concentration (IC50) of 10000 to 50000 nM.

Take `COc1cccc([C@]2(C)C(O)N(c3ccc(Br)cc3)C(=O)N2c2ccc(Br)cc2)c1` (single isomer, unassigned) [Compound 126-2]: under setting [1], the IC50 is under 1000 nM.

In the case of `O=C1N(c2ccc(Cl)cc2)C2(CC2)C(O)(c2cccc(O)c2)N1c1ccc(Cl)cc1` (stereo not shown) [Example 227, 4,6-bis(4-chlorophenyl)-7-hydroxy-7-(3-hydroxyphenyl)-4,6-diazaspiro[2.4]heptan-5-one], the concentration for half-maximal inhibition (IC50) under setting [1] fell in the range of 1000 to 10000 nM.

In the case of `CC1N(c2ccc(Cl)cc2)C(=O)N(c2ccc(Cl)cc2)C1(O)c1cccc(C(C)(C)O)c1` (stereo not shown) [Compound 140, 1,3-bis(4-chlorophenyl)-4-hydroxy-4-(3-(2-hydroxypropan-2-yl)phenyl)-5-methylimidazolidin-2-one], the IC50 under setting [1] was in the range of 1000 to 10000 nM.

Regarding `CC[C@@]1(C)N(c2ccc(Cl)cc2)C(=O)N(c2ccc(Cl)cc2)C1(O)c1cccc(C#N)c1` (single isomer, unassigned) [Example 185-1], the IC50 under setting [1] lay within 10000 to 50000 nM.

For `O=C1N(c2ccc(Br)cc2)C(=O)C(O)(C2CCOCC2)N1c1ccc(Br)cc1` (stereo not shown) [Example 207, 1,3-bis(4-bromophenyl)-5-hydroxy-5-(tetrahydro-2H-pyran-4-yl)imidazolidine-2,4-dione], the IC50 under setting [1] lay in the range of 10000 to 50000 nM.

`O=C1N(c2ccc(Cl)cc2)C2(CC(F)C2)C(O)(c2cccc(OC(F)(F)F)c2)N1c1ccc(Cl)cc1` (stereo not shown) [Compound 240, 5,7-bis(4-chlorophenyl)-2-fluoro-8-hydroxy-8-(3-(trifluoromethoxy)phenyl)-5,7-diazaspiro[3.4]octan-6-one]: the half-inhibitory concentration (IC50) under setting [1] is under 1000 nM.

For the compound `Cc1ccccc1C1(O)CN(c2ccc(Br)cc2)C(=O)N1c1ccc(Br)cc1` (stereo not shown) [Example 14, 1,3-bis(4-bromophenyl)-4-hydroxy-4-(o-tolyl)imidazolidin-2-one], the IC50 under setting [1] is over 50000 nM.

As for `N#Cc1cccc(C2(O)[C@H](C3CCC3)N(c3ccc(Cl)cc3)C(=O)N2c2ccc(Cl)cc2)c1` (stereo partly drawn) [Example 194-1, 3-((5S)-1,3-bis(4-chlorophenyl)-5-cyclobutyl-4-hydroxy-2-oxoimidazolidin-4-yl)benzonitrile], the half-maximal inhibitory concentration (IC50) under setting [1] was under 1000 nM.

For `N#Cc1cccc(C2(O)N(c3ccc(Cl)cc3)C(=O)N(c3ccc(Cl)cc3)C23CCCC3)c1` (stereo not shown) [Compound 135, 3-(1,3-bis(4-chlorophenyl)-4-hydroxy-2-oxo-1,3-diazaspiro[4.4]nonan-4-yl)benzonitrile], under setting [1], the 50% inhibitory concentration (IC50) is under 1000 nM.

Turning to `O=C1N(c2ccc(Cl)cc2)C2(CCOC2)C(O)(c2cccc(OC(F)(F)F)c2)N1c1ccc(Cl)cc1` (stereo not shown) [Compound 234, 1,3-bis(4-chlorophenyl)-4-hydroxy-4-(3-(trifluoromethoxy)phenyl)-7-oxa-1,3-diazaspiro[4.4]nonan-2-one], the half-inhibitory concentration (IC50) under setting [1] was under 1000 nM.

With `Cc1cccc(C2(O)CN(c3ccc(Br)cc3)C(=O)N2c2ccc(Br)cc2)c1` (stereo not shown) [Example 16, 1,3-bis(4-bromophenyl)-4-hydroxy-4-(m-tolyl)imidazolidin-2-one], the IC50 under setting [1] lay within 1000 to 10000 nM.

Turning to `CCC[C@@H]1N(c2ccc(Cl)cc2)C(=O)N(c2ccc(Cl)cc2)C1(O)c1cccc(C(F)(F)F)c1` (single isomer, unassigned) [Compound 87-1], the IC50 under setting [1] is under 1000 nM.

Take `COc1ccc(N2C(=O)N(c3ccc(OC)cc3)C(O)(c3cccc(C#N)c3)C2(C)C)cc1` (stereo not shown) [Example 328, 3-(4-hydroxy-1,3-bis(4-methoxyphenyl)-5,5-dimethyl-2-oxoimidazolidin-4-yl)benzonitrile]: the IC50 under setting [2] lay in the range of 1000 to 10000 nM.

Turning to `O=c1n(-c2ccc(Cl)cc2)c(-c2cccc(OC(F)F)c2)c(C2CC2)n1-c1ccc(Cl)cc1` [Compound 70, 1,3-bis(4-chlorophenyl)-4-cyclopropyl-5-(3-(difluoromethoxy)phenyl)-1,3-dihydro-2H-imidazol-2-one], the IC50 under setting [1] is under 1000 nM.

As to `CCC[C@@H]1N(c2ccc(Br)cc2)C(=O)N(c2ccc(Br)cc2)C1(O)c1cccc(C(F)(F)F)c1` (stereo partly drawn) [Compound 100-1, (5S)-1,3-bis(4-bromophenyl)-4-hydroxy-5-propyl-4-(3-(trifluoromethyl)phenyl)imidazolidin-2-one], the IC50 under setting [1] is under 1000 nM.

As for `Cc1ccc(N2C(=O)N(c3ccc(C)cc3)C(O)(c3cccc(OC(F)(F)F)c3)[C@@H]2C(C)C)cc1` (single isomer, unassigned) [Compound 235-1], the IC50 under setting [1] is under 1000 nM.

Take `COc1ccc(N2C(=O)N(c3ccc(OC)cc3)C(O)(c3cccc(OC(F)(F)F)c3)[C@@H]2C(C)C)cc1` (stereo partly drawn) [Example 329-1, (5S)-4-hydroxy-5-isopropyl-1,3-bis(4-methoxyphenyl)-4-(3-(trifluoromethoxy)phenyl)imidazolidin-2-one]: under setting [2], the IC50 was in the range of 1000 to 10000 nM.

In the case of `N#Cc1cc(C#N)cc(C2(O)N(c3ccc(Cl)cc3)C(=O)N(c3ccc(Cl)cc3)C23COC3)c1` (stereo not shown) [Compound 306, 5-(5,7-bis(4-chlorophenyl)-8-hydroxy-6-oxo-2-oxa-5,7-diazaspiro[3.4]octan-8-yl)isophthalonitrile], the IC50 under setting [2] is under 1000 nM.

As to `C[C@]1(C(F)(F)F)N(c2ccc(Cl)cc2)C(=O)N(c2ccc(Cl)cc2)C1(O)c1cccc(C#N)c1` (single isomer, unassigned) [Example 177-1], the IC50 under setting [1] was under 1000 nM.

Consider `CC1N(c2ccc(Cl)cc2)C(=O)N(c2ccc(Cl)cc2)C1(O)c1cccc(Cl)c1` (stereo not shown) [Compound 62, 4-(3-chlorophenyl)-1,3-bis(4-chlorophenyl)-4-hydroxy-5-methylimidazolidin-2-one], for which the IC50 under setting [1] is under 1000 nM.

As for `CCc1cccc(C2(O)CN(c3ccc(Br)cc3)C(=O)N2c2ccc(Br)cc2)c1` (stereo not shown) [Example 47, 1,3-bis(4-bromophenyl)-4-(3-ethylphenyl)-4-hydroxyimidazolidin-2-one], the IC50 under setting [1] was in the range of 1000 to 10000 nM.
